# Data: patent publication US8663608B2, “Hydroxytyrosol compounds” (University of Cape Town, priority 2009, dated 2014)
# Several values for one entry are separate records, joined by “and”; a condition that tells them apart may be missing. Identical values can stand only once.
# Experiments:
# [1] = DPPH radical scavenging assay; assay type: biochemical; settings: for Radical Scavenging Activity (%): compared to standard ascorbic acid (100%); for Final time of reaction: time to steady state
# Procedure: The DPPH assay is based on the change in absorbance at 515 nm, upon reduction of the DPPH radical, by an antioxidant. The antioxidant activity of a putative antioxidant is measured by monitoring the decrease in absorbance when the colour of the solution fades. In this assay, the reaction between the test antioxidant and DPPH radical is allowed to continue until it reaches a steady state. The amount of the radical quenched when steady state is reached is dependent on the antioxidant capacity and the concentration of the antioxidant. 100 μl (1 mg/3 ml) of the respective sample was added to 3.9 ml DPPH solution (25 mg/L in methanol). The decrease in absorbance at 515 nm was monitored using a Unicam UV-visible spectrophotometer, until the reaction reached steady state.
# Bax = assay: Western blot of Bax expression in UVA-irradiated HaCaTs; assay type: cell-based, human; settings: for % Bax Expression: relative to control (100%)
# Text: (§1) Apoptosis can take place through the extrinsic pathway or the intrinsic pathway. The extrinsic pathway involves transmembrane receptor-mediated interactions which involve members of the tumour necrosis factor (TNF). The intrinsic pathway is a mitochondrial-initiated event and thus is of interest for this study. The intrinsic pathway can progress in a caspase-dependent or independent way. The caspase-independent route involves a protein called AIF which when released from the mitochondria, translocates directly to the nucleus and induces apoptosis. The alternative caspase-dependent route involves members of the Bcl-2 family of proteins. This family of proteins is responsible for regulating the permeability of the mitochondrial membrane and can be either pro-apoptotic or anti-apoptotic; Bcl-2 is anti-apoptotic while Bax is pro-apoptotic. The cells' sensitivity to apoptotic stimuli depends on the balance of pro-apoptotic (Bax) and anti-apoptotic (Bcl-2) proteins. […] An excess of Bax results in the cells being more susceptible to apoptosis, and an excess of Bcl-2 renders the cells more resistant to apoptosis. To determine the nature of the anti-apoptotic effect mediated by Polymer Compound 57 and hydroxytyrosol due to UVA irradiation, the Bax/Bcl-2 ratio was studied using Western blot analysis. To evaluate the expression of Bcl-2, Bax and AIF, the cells were cultured and treated with varying concentrations between 200 and 1000 μM of Polymer Compound 57 and hydroxytyrosol for 18 hrs, and then irradiated at 22.3 J/cm^2. Protein extraction was conducted and proteins were quantified using the BCA method. […] The purpose of this control is to ensure that it is only the UVA rays that result in the observed effects, and not the heat in the chamber. Alpha tubilin was used as a loading control in each experiment to ensure that the results were quantified correctly. Since the Western blot results are quantified by band size, it is important to ensure that each sample has the same amount of protein when loaded and the loading control helps to determine this. The band obtained when the proteins are probed with the loading control represent the amount of protein in that loaded sample.
# Bcl-2 = assay: Western blot of Bcl-2 expression in UVA-irradiated HaCaTs; assay type: cell-based, human; settings: for % Bcl-2 Expression: relative to control (100%)
# Text: as §1
# AIF = assay: Western blot of AIF expression in UVA-irradiated HaCaTs; assay type: cell-based, human; settings: for % AIF Expression: relative to control (100%)
# Text: as §1
# [2] = FRAP assay (iron (III) reduction ability); assay type: biochemical; settings: 1 ml (1 mg/3 ml) sample
# Procedure: The FRAP assay measures the ability of an antioxidant to reduce a ferroin analog, the Fe complex of tripyridyltriazine, Fe (TPTZ)^3+, to the intensely blue coloured Fe^2+ in an acidic medium. Results are obtained as absorbance increases at 593 nm and can be expressed relative to an antioxidant standard, ascorbic acid in this case.
# 1 ml (1 mg/3 ml) of the respective sample was added to 2.5 ml of potassium phosphate buffer (pH 7, 500 mM) 2.5 ml potassium ferricyanide was added. This was followed by incubation at 50° C. for 20 min. 10% (v/v) trichloracetic acid was added to stop the reaction. 2.5 ml of water was then added to 2.5 ml of the reaction. Iron chloride (0.5 ml) was added. The reaction was allowed to stand for 30 min after which the absorbance was read at 700 nm.
# [3] = tested on: low density lipoprotein (LDL); assay: LDL oxidation assay (conjugated diene formation); assay type: biochemical; settings: 50 μM test antioxidant; LDL oxidized with 5 μM CuCl2; relative to ascorbic acid
# Procedure: Oxidation of low density lipoprotein (LDL) was performed according to the method developed by Nardini et al (1995). LDL was dialyzed in a 200 fold volume of PBS of pH 7 in the dark for 18 hrs. 100 μg/ml LDL, determined with the Bradford method, was oxidized with 5 μM CuCl2 for 4 hrs at 37° C. in the presence and absence of 50 μM test antioxidant. Conjugated diene formation was measured spectroscopically at 234 nm using a Unicam UV-visible spectrophotometer.
# The antioxidant ability of Polymer Compound 57 to inhibit LDL oxidation was assessed by adding it to a reaction mixture containing LDL previously treated with copper to initiate the oxidation. The antioxidant ability of the compound was measured based on the increase in absorbance due to diene conjugation at 234 nm.
# HaCaTs = assay: XTT cell viability assay in HaCaTs; assay type: cell-based, human
# Procedure: To evaluate the toxicity of Polymer Compound 57 an XTT assay was conducted. The assay is based on the ability of viable cells to reduce yellow XTT tetrazolium salts to an orange formazan which is then measured at an absorbance of 450 nm. The HaCaTs were incubated overnight with increasing concentrations of Polymer Compound 57. Cell viability was then evaluated by adding the XTT solution, incubating for 4 hrs at 37° C., and then reading the absorbance at 450 nm.
# To further explore the effect of the antioxidants a dose and time response study was carried out to determine the long term effect of Polymer Compound 57.
# [4] = tested on: UVA-induced H2O2 production in keratinocytes; assay: ROS assay (DHR 123, FACS) in UVA-irradiated keratinocytes; assay type: cell-based, human
# Text: UVA irradiation of cultured human skin cells results in over-elevated levels of H2O2 and other ROS (reactive oxygen species), with H2O2 being the predominant species. Dihydrorhodamine (DHR 123) can be used to detect H2O2 produced following irradiating the cells with UVA. […] The mean fluorescence (MF), read on a fluorescent activated cell sorter (FACS) machine thus indicates intracellular H2O2 production. To elucidate the effect that Polymer Compound 57 would have on the over-expression of ROS due to irradiation, H2O2 production in keratinocytes was measured. The cells were first treated with the various concentrations of the Polymer Compound 57, irradiated with UVA and then exposed to the dye DHR 123.
structure (smiles),measurement,setting,value
"O=C1O[C@H]([C@@H](O)CO)C(O)=C1O [Ascorbic acid, reference compound]",Radical Scavenging Activity (%),[1]; 0.002M sample,100%
same,Final time of reaction,[1]; 0.002M sample,4 min
OCCc1ccc(O)c(O)c1 [Hydroxytyrosol],% Bax Expression,Bax; 200 μM,128%
same,% Bax Expression,Bax; 333 μM,116%
same,% Bax Expression,Bax; 1000 μM,100%
same,% Bcl-2 Expression,Bcl-2; 200 μM,83%
same,% Bcl-2 Expression,Bcl-2; 333 μM,90%
same,increase in Bcl-2 levels of expression relative to the control,Bcl-2; 1000 μM,7%
same,% Bcl-2 Expression,Bcl-2; 1000 μM,110%
same,% AIF Expression,AIF; 200 μM,91%
same,% AIF Expression,AIF; 333 μM,82%
same,reduction of AIF levels relative to the control,AIF; 1000 μM,15%
same,% AIF Expression,AIF; 1000 μM,42%
OCCc1cc(O)c(O)c(-c2cc(CCO)cc(O)c2O)c1 [Polymer Compound 57],Radical Scavenging Activity (%),[1]; 0.0004M sample,86.7%
same,Final time of reaction,[1]; 0.0004M sample,7 min
same,antioxidant activity equivalent of ascorbic acid,[2],363 mg/L
same,effect on absorbance at 234 nm due to diene conjugation,[3],absorbance-decreasing effect
same,long term toxicity to HaCaTs,"HaCaTs; 3 day period, concentrations non-toxic over 24 hr",non-toxic
same,concentrations resulting in marked decreases in cell viability,"HaCaTs; HaCaTs, overnight incubation",higher than 500 μM
same,concentrations with no negative effect on cell viability,"HaCaTs; HaCaTs, overnight incubation",200 to 500 µM
same,mean fluorescence (ROS level) relative to control of 100%,[4]; 200 μM,87-100%
same,mean fluorescence (ROS level) relative to control of 100%,[4]; 333 μM,85%
same,reduction of Bax levels relative to the control,Bax; 200 μM,75% and 70%
same,% Bax Expression,Bax; 200 μM,31%
same,reduction of Bax levels relative to the control,Bax; 333 μM,87.5%
same,% Bax Expression,Bax; 333 μM,17%
same,reduction of Bax levels relative to the control,Bax; 500 μM,87.5%
same,% Bax Expression,Bax; 1000 μM,14%
same,decrease of Bax levels relative to the control (100%),"Bax; ""lowest concentration"" as printed",85%
same,% Bcl-2 Expression,Bcl-2; 200 μM,50%
same,% Bcl-2 Expression,Bcl-2; 333 μM,84%
same,increase in Bcl-2 levels of expression relative to the control,Bcl-2; 500 μM,16%
same,% Bcl-2 Expression,Bcl-2; 1000 μM,118%
same,"AIF levels reduced to, relative to the control",AIF; 200 μM,28%
same,% AIF Expression,AIF; 200 μM,78%
same,"AIF levels reduced to, relative to the control",AIF; 333 μM,32%
same,% AIF Expression,AIF; 333 μM,74%
same,"AIF levels reduced to, relative to the control",AIF; 500 μM,32%
same,% AIF Expression,AIF; 1000 μM,38%
